According to ChEMBL document CHEMBL5126508, “Therapeutic potential of quinazoline derivatives for Alzheimer's disease: A comprehensive review” (Eur J Med Chem, 2022):

Experiments:
[1] = Inhibition of Kainate receptor (unknown origin); design: species or system Homo sapiens
Cholinesterase [2] = target: T1, Cholinesterase (Equus caballus, UniProt P81908); assay: Inhibition of equine serum BuChE incubated measured after 25 mins by spectrophotometric analysis; type: cell-free
[3] = Ratio of IC50 for electric eel AChE to ratio of IC50 for equine BuChE
Acetylcholinesterase [4] = target: T2, Acetylcholinesterase (Electrophorus electricus, UniProt O42275); assay: Inhibition of electric eel AChE incubated for 25 mins by Ellman's method
T2 sequence (O42275 whole entry): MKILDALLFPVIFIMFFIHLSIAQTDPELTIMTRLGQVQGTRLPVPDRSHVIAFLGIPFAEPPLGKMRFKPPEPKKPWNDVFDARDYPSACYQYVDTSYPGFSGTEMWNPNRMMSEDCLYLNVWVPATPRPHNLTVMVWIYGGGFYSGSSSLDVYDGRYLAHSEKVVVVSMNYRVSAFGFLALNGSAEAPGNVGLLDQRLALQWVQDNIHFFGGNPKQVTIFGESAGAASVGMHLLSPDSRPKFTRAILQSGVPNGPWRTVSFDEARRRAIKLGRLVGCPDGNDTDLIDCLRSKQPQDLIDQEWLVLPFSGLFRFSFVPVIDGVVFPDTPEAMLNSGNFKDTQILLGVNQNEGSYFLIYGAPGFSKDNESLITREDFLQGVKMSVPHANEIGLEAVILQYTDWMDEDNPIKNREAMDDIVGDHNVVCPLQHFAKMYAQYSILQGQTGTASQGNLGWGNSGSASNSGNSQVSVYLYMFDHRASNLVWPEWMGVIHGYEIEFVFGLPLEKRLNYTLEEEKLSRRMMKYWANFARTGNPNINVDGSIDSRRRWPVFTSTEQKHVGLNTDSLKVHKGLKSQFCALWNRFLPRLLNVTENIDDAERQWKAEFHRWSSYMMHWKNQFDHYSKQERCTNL

Cholinesterase [5] = target: T3, Cholinesterase (Homo sapiens, UniProt P06276); assay: Inhibition of BuChE (unknown origin) at 100 uM relative to control
T3 sequence (P06276 whole entry): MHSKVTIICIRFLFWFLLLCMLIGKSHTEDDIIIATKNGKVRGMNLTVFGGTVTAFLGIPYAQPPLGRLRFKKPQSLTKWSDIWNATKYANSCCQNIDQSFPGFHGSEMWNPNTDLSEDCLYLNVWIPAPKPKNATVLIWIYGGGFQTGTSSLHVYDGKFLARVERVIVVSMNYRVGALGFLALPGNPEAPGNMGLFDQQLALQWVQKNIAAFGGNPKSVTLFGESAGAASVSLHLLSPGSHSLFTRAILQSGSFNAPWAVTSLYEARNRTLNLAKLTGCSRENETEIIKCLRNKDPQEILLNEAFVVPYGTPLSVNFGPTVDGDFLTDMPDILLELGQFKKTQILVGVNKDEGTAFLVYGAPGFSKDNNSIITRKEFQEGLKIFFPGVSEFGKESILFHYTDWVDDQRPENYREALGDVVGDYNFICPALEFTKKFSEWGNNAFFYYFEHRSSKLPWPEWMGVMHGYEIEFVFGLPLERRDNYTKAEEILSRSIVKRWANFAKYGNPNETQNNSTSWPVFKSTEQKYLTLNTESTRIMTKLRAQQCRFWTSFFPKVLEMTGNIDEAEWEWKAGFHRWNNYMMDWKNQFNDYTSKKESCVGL

[6] = Inhibition of PDE7 (unknown origin); design: species or system Homo sapiens
Acetylcholinesterase [7] = target: T4, Acetylcholinesterase (Homo sapiens, UniProt P22303); assay: Inhibition of AChE (unknown origin)
T4 sequence (P22303 whole entry): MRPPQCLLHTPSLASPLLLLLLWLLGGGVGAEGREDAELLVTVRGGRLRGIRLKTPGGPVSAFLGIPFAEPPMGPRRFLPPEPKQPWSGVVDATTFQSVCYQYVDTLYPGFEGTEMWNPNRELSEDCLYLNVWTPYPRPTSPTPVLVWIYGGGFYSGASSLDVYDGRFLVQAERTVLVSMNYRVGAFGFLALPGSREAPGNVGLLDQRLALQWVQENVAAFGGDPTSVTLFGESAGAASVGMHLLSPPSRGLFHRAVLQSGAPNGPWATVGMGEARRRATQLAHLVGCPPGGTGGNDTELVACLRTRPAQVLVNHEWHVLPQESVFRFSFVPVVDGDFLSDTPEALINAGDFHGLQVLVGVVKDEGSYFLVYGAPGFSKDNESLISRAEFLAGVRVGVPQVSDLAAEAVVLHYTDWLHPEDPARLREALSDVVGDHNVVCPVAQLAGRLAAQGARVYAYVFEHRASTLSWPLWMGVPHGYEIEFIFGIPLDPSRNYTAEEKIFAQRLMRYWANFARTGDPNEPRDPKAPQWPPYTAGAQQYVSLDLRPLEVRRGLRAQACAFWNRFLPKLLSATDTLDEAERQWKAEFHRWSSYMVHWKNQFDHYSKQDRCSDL

Cholinesterase [8] = target: T3, Cholinesterase; assay: Inhibition of BuChE (unknown origin)
[9] = target: Dual specificity tyrosine-phosphorylation-regulated kinase 1A (Homo sapiens, UniProt Q13627); assay: Inhibition of DYRK1A (unknown origin)
[10] = target: T5, Cyclin-dependent kinase 5 (Homo sapiens, UniProt Q00535); assay: Inhibition of CDK5 (unknown origin) at 1 uM relative to control
Target sequence in this assay (Q00535 whole entry, looked up): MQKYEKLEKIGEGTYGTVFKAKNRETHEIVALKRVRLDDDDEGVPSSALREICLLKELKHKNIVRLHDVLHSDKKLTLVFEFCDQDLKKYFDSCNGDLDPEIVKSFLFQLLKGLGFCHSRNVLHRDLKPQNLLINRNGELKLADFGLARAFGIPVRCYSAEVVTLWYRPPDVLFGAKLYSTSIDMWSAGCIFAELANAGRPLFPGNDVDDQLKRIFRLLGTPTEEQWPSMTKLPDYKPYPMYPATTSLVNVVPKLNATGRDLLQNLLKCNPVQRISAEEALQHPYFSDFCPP

[11] = target: T6, Glycogen synthase kinase-3 (Homo sapiens, UniProt P49840+P49841); assay: Inhibition of GSK3alpha/beta (unknown origin) at 1 uM relative to control; type: protein assay
T6 sequence (P49840 whole entry, looked up): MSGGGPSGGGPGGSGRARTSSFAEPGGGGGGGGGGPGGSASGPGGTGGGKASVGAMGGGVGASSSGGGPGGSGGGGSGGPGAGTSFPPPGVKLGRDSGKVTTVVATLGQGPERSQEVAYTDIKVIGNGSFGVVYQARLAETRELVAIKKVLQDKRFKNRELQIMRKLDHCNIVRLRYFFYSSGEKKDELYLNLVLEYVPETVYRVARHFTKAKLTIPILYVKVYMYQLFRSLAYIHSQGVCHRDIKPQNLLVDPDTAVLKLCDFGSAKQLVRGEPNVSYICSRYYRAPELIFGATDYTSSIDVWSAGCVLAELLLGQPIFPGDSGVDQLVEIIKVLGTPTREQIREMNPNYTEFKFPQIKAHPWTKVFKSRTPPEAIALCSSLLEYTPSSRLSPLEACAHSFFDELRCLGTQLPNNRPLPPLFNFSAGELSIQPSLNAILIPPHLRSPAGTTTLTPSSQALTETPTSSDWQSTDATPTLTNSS
T6 sequence (P49841 whole entry, looked up): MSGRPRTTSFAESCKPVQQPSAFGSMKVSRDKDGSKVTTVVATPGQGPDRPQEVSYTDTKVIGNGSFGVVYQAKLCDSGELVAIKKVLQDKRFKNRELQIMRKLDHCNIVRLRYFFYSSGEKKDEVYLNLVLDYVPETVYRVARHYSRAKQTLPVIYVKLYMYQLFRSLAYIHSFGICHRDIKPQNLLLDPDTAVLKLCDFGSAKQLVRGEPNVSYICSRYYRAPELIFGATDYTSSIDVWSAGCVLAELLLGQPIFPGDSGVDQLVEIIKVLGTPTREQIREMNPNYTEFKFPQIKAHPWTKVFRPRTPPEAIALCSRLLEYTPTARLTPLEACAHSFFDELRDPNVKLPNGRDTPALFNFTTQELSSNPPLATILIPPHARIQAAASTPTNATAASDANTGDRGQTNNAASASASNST

[12] = target: T7, Casein kinase I delta/epsilon (Homo sapiens, UniProt P48730+P49674); assay: Inhibition of CK1delta/epsilon (unknown origin) at 1 uM relative to control; type: protein-complex assay
[13] = Antioxidant activity assessed as radical scavenging at 100 ug/ml by DPPH assay relative to control; type: functional
[14] = target: T8, Amine oxidase [flavin-containing] B (Homo sapiens, UniProt P27338); assay: Inhibition of MAO-B (unknown origin)
T8 sequence (P27338 whole entry): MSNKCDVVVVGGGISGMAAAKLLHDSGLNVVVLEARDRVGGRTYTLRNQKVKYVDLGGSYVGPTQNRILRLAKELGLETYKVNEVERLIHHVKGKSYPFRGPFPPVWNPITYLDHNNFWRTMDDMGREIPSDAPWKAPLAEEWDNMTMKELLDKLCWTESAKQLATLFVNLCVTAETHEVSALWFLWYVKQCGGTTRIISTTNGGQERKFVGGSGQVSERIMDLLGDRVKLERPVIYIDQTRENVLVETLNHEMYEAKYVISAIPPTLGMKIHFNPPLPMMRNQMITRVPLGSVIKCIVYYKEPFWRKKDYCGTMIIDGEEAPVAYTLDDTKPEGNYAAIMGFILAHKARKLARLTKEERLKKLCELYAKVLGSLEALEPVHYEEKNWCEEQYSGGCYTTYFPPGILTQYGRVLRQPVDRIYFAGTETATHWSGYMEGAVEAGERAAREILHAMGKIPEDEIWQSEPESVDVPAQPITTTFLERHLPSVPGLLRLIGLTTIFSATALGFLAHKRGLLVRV

[15] = target: T9, Amine oxidase [flavin-containing] A (Homo sapiens, UniProt P21397); assay: Inhibition of MAO-A (unknown origin)
T9 sequence (P21397 whole entry): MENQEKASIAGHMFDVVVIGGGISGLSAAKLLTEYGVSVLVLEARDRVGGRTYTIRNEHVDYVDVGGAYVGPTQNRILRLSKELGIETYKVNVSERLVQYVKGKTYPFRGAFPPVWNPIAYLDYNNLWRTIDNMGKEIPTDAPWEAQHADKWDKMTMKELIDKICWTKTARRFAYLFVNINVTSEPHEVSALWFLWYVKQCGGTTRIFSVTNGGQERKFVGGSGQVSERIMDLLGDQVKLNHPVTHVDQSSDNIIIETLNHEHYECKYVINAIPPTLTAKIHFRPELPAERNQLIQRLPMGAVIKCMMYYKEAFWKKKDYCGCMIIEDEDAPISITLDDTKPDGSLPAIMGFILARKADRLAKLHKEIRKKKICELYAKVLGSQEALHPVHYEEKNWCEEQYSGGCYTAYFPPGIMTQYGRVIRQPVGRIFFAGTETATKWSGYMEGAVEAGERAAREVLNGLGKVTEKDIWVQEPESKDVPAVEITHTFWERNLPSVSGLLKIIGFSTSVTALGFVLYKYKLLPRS

[16] = target: T7, Casein kinase I delta/epsilon; assay: Inhibition of CK1delta/epsilon (unknown origin); type: protein-complex assay
Target sequence in this assay (P48730 whole entry): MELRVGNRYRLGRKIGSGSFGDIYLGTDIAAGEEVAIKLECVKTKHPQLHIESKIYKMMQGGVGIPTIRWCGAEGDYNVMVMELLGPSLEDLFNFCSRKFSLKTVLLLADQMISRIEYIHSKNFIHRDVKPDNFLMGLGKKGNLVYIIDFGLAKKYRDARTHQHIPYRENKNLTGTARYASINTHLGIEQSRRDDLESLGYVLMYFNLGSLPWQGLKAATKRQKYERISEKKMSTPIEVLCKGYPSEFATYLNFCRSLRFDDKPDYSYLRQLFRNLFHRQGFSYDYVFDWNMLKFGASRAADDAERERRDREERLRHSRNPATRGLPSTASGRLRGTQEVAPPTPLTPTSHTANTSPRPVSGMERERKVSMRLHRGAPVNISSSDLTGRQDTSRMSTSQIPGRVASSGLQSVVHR
Target sequence in this assay (P49674 whole entry): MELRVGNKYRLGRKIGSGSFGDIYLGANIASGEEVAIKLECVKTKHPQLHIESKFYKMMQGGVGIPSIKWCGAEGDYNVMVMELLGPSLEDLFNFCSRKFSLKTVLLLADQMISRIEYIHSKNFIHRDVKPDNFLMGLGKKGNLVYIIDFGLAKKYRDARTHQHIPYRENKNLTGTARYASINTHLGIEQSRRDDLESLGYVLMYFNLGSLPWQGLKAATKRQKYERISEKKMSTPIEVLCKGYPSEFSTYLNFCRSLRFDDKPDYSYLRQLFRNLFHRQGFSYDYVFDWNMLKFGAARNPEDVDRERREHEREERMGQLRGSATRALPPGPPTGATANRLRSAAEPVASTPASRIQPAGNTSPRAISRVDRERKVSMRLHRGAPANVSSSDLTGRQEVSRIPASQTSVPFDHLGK

Phosphodiesterase 4 = Phosphodiesterase 4 (Homo sapiens, UniProt P27815+Q08499+Q07343+Q08493); assay: Inhibition of PDE4 (unknown origin); type: protein assay
[17] = target: 3',5'-cyclic-AMP phosphodiesterase 4D (Homo sapiens, UniProt Q08499); assay: Inhibition of PDE4D2 (unknown origin)
Acetylcholinesterase [18] = target: T4, Acetylcholinesterase; assay: Inhibition of human AChE
Acetylcholinesterase [19] = target: T2, Acetylcholinesterase; assay: Inhibition of electric eel AChE
Cholinesterase [20] = target: T1, Cholinesterase; assay: Inhibition of equine serum BuChE
[21] = Ratio of IC50 for equine BuChE to IC50 for electric eel AChE
Beta-secretase 1 [22] = target: T10, Beta-secretase 1 (Homo sapiens, UniProt P56817); assay: Inhibition of recombinant human BACE1 using fluorogenic 7-methoxycoumarin-4-yl)acetyl-Ser-Glu-Val-Asn-Leu-Asp-Ala-Glu-Phe-ArgLys(2, 4-dinitrophenyl)-Arg-Arg-NH2 as substrate measured every 5 mins for 120 mins by CFA
T10 sequence (P56817 whole entry): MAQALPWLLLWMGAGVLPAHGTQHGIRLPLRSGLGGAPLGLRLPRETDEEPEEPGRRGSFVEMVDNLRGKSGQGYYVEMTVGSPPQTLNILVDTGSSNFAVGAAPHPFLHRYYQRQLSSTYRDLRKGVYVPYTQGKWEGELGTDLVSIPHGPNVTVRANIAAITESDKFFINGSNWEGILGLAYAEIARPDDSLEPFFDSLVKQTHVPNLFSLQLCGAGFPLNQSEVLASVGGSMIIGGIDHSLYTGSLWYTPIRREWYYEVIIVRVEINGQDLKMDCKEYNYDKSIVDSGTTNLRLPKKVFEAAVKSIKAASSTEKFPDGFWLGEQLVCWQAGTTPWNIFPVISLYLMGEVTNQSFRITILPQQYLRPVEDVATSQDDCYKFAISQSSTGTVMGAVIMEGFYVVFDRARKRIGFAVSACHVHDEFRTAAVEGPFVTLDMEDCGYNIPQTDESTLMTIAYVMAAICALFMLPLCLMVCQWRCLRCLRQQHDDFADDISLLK

Beta-secretase 1 [23] = target: T10, Beta-secretase 1; assay: Inhibition of recombinant human BACE1 in human SH-SY5Y cells using fluorogenic 7-methoxycoumarin-4-yl)acetyl-Ser-Glu-Val-Asn-Leu-Asp-Ala-Glu-Phe-ArgLys(2, 4-dinitrophenyl)-Arg-Arg-NH2 as substrate measured every 5 mins for 120 mins by WCA; type: cell-based
SH-SY5Y = assay: Cytotoxicity against human SH-SY5Y cells; type: functional, cell-based
[24] = target: Cyclin-dependent kinase 1 (Homo sapiens, UniProt P06493); assay: Inhibition of CDK1 (unknown origin)
[25] = target: T5, Cyclin-dependent kinase 5; assay: Inhibition of CDK5 (unknown origin)
[26] = target: T6, Glycogen synthase kinase-3; assay: Inhibition of GSK3alpha/beta (unknown origin); type: protein assay
Acetylcholinesterase [27] = target: T4, Acetylcholinesterase; assay: Inhibition of AChE (unknown origin) incubated for 20 mins by TLC analysis
Acetylcholinesterase [28] = target: T2, Acetylcholinesterase; assay: Inhibition of electric eel AChE using acetylthiocholine incubated for 30 mins by measuring hydrolysis of substrate by Ellman's method

T1 sequence (P81908 whole entry): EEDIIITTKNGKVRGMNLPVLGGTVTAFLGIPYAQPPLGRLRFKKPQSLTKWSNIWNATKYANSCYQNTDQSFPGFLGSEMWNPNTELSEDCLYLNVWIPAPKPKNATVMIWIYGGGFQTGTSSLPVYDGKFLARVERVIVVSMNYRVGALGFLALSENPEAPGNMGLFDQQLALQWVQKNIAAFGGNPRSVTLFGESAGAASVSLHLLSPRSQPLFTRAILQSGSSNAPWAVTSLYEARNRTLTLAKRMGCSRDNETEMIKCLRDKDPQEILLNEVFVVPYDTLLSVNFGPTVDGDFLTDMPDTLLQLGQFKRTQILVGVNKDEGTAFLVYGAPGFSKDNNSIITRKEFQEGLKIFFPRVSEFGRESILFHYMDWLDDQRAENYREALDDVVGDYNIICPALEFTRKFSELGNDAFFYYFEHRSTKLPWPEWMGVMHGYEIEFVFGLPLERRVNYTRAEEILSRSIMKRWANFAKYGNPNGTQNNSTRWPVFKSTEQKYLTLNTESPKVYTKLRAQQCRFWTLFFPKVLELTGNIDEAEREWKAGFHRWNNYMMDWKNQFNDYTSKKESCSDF

## O=Cc1ccn(-c2cc3c(cc2Cl)nc(O)n2nc(C(=O)O)cc32)c1
[1]
  IC50: 5100 nM

## CC(C)CC1(CC(C)C)NC(=O)c2ccccc2N1Cc1ccc(Cl)cc1
Cholinesterase [2]
  IC50: 1560 nM
[3]
  Ratio IC50: 2.6

## CC(C)CC1(CC(C)C)NC(=O)c2ccccc2N1Cc1ccccc1
Cholinesterase [2]
  IC50: 2480 nM
[3]
  Ratio IC50: 3.1

## Cc1ccccc1-n1c(SCC(=O)N/N=C/c2ccc(Br)cc2)nc2ccccc2c1=O
Acetylcholinesterase [4]
  IC50: 210000 nM
Cholinesterase [5]
  inhibition: 6.8%

## O=c1c2cccc(Cl)c2[nH]c(=S)n1-c1ccccc1Br
[6]
  IC50: 1800 nM

## c1ccc2c(c1)CN1CCCC1=N2
Acetylcholinesterase [7]
  IC50: 2370 nM
Cholinesterase [8]
  IC50: 40 nM

## O=c1c2ccccc2nc2n1C(c1cncc3[nH]c4ccccc4c13)CC2O (centres undefined)
Acetylcholinesterase [7]
  IC50: 70500 nM
Cholinesterase [8]
  IC50: 18200 nM

## Nc1ncc2ccc3ccncc3c2n1
[9]
  IC50: 2180 nM
[10]
  inhibition: 100%
[11]
  inhibition: 98%
[12]
  inhibition: 98%

## O=c1c2cccc(Cl)c2[nH]c(=S)n1-c1c(F)cccc1F
[6]
  IC50: 6100 nM

## CSc1nc2nc(NN)c3ccccc3n2n1
[13]
  inhibition: 85.9%

## Cn1c(N/N=C(\C=C\c2cccc(Cl)c2)c2ccccc2)nc2ccccc2c1=O
[14]
  IC50: 1150 nM
[15]
  IC50: 468000 nM

## O=c1c2ccccc2nc2n1CCC2 [DEOXYVASICINONE]
Acetylcholinesterase [7]
  IC50: 35200 nM
Cholinesterase [8]
  IC50: 17800 nM

## O=C(O)c1cc2c3cc(-n4cnnc4)c(Cl)cc3[nH]c(=O)n2n1
[1]
  IC50: 5500 nM

## Nc1ncc2cc3cnccc3cc2n1
[16]
  IC50: 800 nM
[9]
  IC50: 180 nM
[10]
  inhibition: > 10%
[11]
  inhibition: > 10%

## CSc1nc2ccccc2c(=O)n1-c1c(F)cccc1F
Phosphodiesterase 4
  IC50: 3500 nM
[17]
  IC50: 3500 nM

## O=C(CCN1CCCCC1)Nc1ccc2nc(-c3cc4ccccc4[nH]3)[nH]c(=O)c2c1
Cholinesterase [8]
  IC50: 7320 nM

## c1cc2c(cc1OCCCN1CCCCC1)CN1CCCCCC1=N2
Acetylcholinesterase [18]
  IC50: 820 nM
Acetylcholinesterase [19]
  IC50: 43 nM
Cholinesterase [20]
  IC50: 12.7 nM
[21]
  Ratio IC50: 0.296

## CC1c2cc(Oc3ccccc3)ccc2N=C(N)N1CCCC(=O)N(Cc1cnn(C)c1)C1CCCCC1 (centres undefined)
Beta-secretase 1 [22]
  IC50: 380 nM
Beta-secretase 1 [23]
  IC50: 140 nM
SH-SY5Y
  IC50: 12500 nM

## COC(=N)c1nc2ccc3ncnc(Nc4ccc5c(c4)OCO5)c3c2s1
[24]
  IC50: > 10000 nM
[25]
  IC50: > 10000 nM
[26]
  IC50: 660 nM

## O=c1c2ccccc2nc2n1CC[C@@H]2[C@@H]1CCCN1
Acetylcholinesterase [27]
  IC50: 5710 nM
Cholinesterase [8]
  IC50: > 500000 nM

## CSc1nc2nc(N/N=C/c3cccnc3)c3ccccc3n2n1
[13]
  inhibition: 62%

## c1ccc2c(c1)CCN1Cc3cc(OCCCN4CCCCC4)ccc3N=C21
Acetylcholinesterase [18]
  IC50: 216 nM
Acetylcholinesterase [19]
  IC50: 5.5 nM
Cholinesterase [20]
  IC50: 955 nM
[21]
  Ratio IC50: 174

## CC1(c2ccc(Cl)cc2)Nc2cc(Cl)ccc2-c2ccnn21 (centres undefined)
Acetylcholinesterase [28]
  IC50: 358000 nM
Cholinesterase [8]
  IC50: > 379000 nM
